For experiment [1], the system named is MCF7. In words: Induction of cell cycle arrest in human MCF7 cells assessed as accumulation of cells at S phase at antiproliferative IC50 by PI staining based flow cytometric analysis (reference value: 32.91%). It counts as functional. In general terms: In flow cytometry, cells or beads pass a laser one at a time.
Experiment [2] deals with Vascular endothelial growth factor receptor 2 (Homo sapiens, UniProt P35968).
Description: Inhibition of VEGFR-2 (unknown origin) relative to control
In experiment [3] the test system is HCT-116. In words: Induction of apoptosis in human HCT-116 cells assessed as increase in caspase-3 level after 24 hrs by Western blot analysis relative to untreated control. Type of experiment: functional. Background: In western blotting, separated proteins are transferred to a membrane and probed.
In experiment [4] the target is Tubulin (Homo sapiens) (UniProt P68371+Q9H4B7+P0DPH7+P68366+Q13509+Q71U36+P04350+Q3ZCM7+P07437+P68363+Q9BQE3+Q6PEY2+Q13885+Q9BVA1+Q9BUF5). Kind of experiment: Inhibition of tubulin polymerization (unknown origin) at 10 uM relative to control. Type of experiment: protein-complex assay.
Experiment [5] relates to HCT-116. In words: Induction of apoptosis in human HCT-116 cells assessed as late apoptotic cells at antiproliferative IC50 incubated for 24 hrs by annexin V FITC and propidium iodide staining based flow cytometry (reference value: 0.19 %). It counts as functional.
Experiment [6] concerns HepG2. Kind of experiment: Antitumor activity against human HepG2 cells assessed as inhibition of cell viability by MTT assay. Type of experiment: functional, cell-based.
Experiment [7] has as its system HepG2. Kind of experiment: Induction of apoptosis in human HepG2 cells assessed as increase in caspase-3 level after 24 hrs by Western blot analysis relative to untreated control. Type of experiment: functional.
The test system of experiment [8] is WISH. In words: Cytotoxicity against human WISH cells assessed as reduction in cell viability by MTT assay. Type of experiment: cell-based.
Experiment [9] has as its system MCF7. In words: Induction of cell cycle arrest in human MCF7 cells assessed as cell debris at antiproliferative IC50 by PI staining based flow cytometric analysis (reference value: 1.63%). Type of experiment: functional. To be noted: time 24 hrs.
Experiment [10] has as its system HepG2. In words: Induction of apoptosis in human HepG2 cells assessed as late apoptotic cells at antiproliferative IC50 incubated for 24 hrs by annexin V FITC and propidium iodide staining based flow cytometry (reference value: 0.31 %). Type of experiment: functional.

For orientation: IC50 means the concentration needed to halve the response being measured. Usually inhibition stands for the relative decrease from the control value, in per cent.

Vascular endothelial growth factor receptor 2, sequence (P35968 whole entry): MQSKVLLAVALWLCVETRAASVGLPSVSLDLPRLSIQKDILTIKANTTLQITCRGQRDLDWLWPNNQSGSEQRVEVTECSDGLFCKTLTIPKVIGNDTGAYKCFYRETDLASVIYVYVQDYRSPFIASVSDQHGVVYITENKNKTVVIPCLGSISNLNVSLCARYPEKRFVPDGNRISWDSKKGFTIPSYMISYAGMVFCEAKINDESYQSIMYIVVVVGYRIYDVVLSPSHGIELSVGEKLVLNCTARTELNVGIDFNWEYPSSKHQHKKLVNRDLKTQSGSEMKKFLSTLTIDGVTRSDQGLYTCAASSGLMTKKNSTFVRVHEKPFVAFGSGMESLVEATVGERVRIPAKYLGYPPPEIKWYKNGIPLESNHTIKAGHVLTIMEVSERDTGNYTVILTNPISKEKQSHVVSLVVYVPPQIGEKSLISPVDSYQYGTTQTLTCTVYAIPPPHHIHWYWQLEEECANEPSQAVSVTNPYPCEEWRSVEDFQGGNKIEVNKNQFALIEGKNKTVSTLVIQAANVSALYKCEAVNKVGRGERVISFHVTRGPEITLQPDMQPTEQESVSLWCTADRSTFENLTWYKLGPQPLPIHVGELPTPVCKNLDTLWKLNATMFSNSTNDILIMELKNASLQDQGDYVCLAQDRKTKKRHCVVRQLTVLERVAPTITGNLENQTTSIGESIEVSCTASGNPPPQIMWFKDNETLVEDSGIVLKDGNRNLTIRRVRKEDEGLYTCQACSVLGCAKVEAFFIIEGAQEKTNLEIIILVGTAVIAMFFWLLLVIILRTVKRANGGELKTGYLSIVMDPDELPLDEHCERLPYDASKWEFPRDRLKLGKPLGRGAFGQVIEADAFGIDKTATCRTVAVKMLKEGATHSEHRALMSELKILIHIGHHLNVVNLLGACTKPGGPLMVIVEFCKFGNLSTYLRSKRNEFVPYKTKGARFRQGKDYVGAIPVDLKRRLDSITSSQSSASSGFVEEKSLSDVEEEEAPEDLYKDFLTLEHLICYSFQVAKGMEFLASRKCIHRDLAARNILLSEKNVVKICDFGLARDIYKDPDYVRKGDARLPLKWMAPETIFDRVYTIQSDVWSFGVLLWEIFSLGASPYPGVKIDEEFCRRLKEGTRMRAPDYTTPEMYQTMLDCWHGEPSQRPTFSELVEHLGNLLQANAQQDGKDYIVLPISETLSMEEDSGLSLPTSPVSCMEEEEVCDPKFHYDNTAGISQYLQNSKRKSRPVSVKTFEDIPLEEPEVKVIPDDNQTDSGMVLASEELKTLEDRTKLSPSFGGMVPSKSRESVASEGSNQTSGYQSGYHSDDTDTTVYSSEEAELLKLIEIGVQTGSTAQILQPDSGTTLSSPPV

As to `Cc1cc(NC2=NC(=O)/C(=C\c3c4ccccc4cc4ccccc34)S2)no1`, the Activity in experiment [1] was 26.41%; in [5] it was 15.19%; in experiment [9], 2.08%; in experiment [10], 8%. Besides, the values for the IC50 in [2], in experiment [6] and in experiment [8] were 0.087 µM, 6.86 µM and 53.2 µM, respectively. In addition, the “fold change (FC)” value in experiment [3] is recorded as 14.2; in [7] it was 5.4. In experiment [4], the inhibition was 57.7%.

Source of the values: ChEMBL document CHEMBL4665865, “New series of isoxazole derivatives targeting EGFR-TK: Synthesis, molecular modeling and antitumor evaluation” (Bioorg Med Chem, 2020).
